According to article PMC10385824, “Antiproliferative and Tubulin-Destabilising Effects of 3-(Prop-1-en-2-yl)azetidin-2-Ones and Related Compounds in MCF-7 and MDA-MB-231 Breast Cancer Cells” (Pharmaceuticals, 2023):
Like-named read-outs stand apart in the source and are kept apart here.

Experiments:
[1] = tested on: SR; test: NCI-60 SRB screen, leukemia; assay type: cell-based, human; conditions: Homo sapiens, 48 h
[2] = tested on: IGROV1; test: NCI-60 SRB screen, ovarian cancer; assay type: cell-based, human; conditions: Homo sapiens
[3] = tested on: HOP-92; test: NCI-60 SRB screen, non-small cell lung cancer; assay type: cell-based, human; conditions: Homo sapiens
[4] = tested on: NCI-H226; test: NCI-60 SRB screen, non-small cell lung cancer; assay type: cell-based; conditions: Homo sapiens
[5] = tested on: HCT-2998; test: NCI-60 SRB screen, colon cancer; assay type: cell-based, human; conditions: Homo sapiens, 48 h
[6] = tested on: KM12; test: NCI-60 SRB screen, colon cancer; assay type: cell-based, human; conditions: Homo sapiens
[7] = tested on: UACC-62; test: NCI-60 SRB screen, melanoma; assay type: cell-based, human; conditions: Homo sapiens
[8] = tested on: U251; test: NCI-60 SRB screen, CNS cancer; assay type: cell-based, human; conditions: Homo sapiens
[9] = tested on: A498; test: NCI-60 SRB screen, renal cancer; assay type: cell-based, human; conditions: Homo sapiens
[10] = tested on: NCI 60 human cancer cell line panel; test: NCI 60 cell line screen (SRB), panel values; conditions: for CC50: read-out: Mean LC50; for IC (TGI (total growth inhibition)): read-out: Mean TGI
[11] = tested on: LOX IMVI; test: NCI-60 SRB screen, melanoma; assay type: cell-based, human; conditions: Homo sapiens, 48 h
[12] = tested on: BT-549; test: NCI-60 SRB screen, breast cancer; assay type: cell-based, human; conditions: Homo sapiens
[13] = tested on: HCT-116; test: NCI-60 SRB screen, colon cancer; assay type: cell-based, human; conditions: Homo sapiens
[14] = tested on: CAKI-1; test: NCI-60 SRB screen, renal cancer; assay type: cell-based, human; conditions: Homo sapiens
[15] = tested on: EKVX; test: NCI-60 SRB screen, non-small cell lung cancer; assay type: cell-based, human; conditions: Homo sapiens, 48 h
[16] = tested on: MDA-MB-435; test: NCI-60 SRB screen, melanoma; assay type: cell-based, human; conditions: Homo sapiens
[17] = tested on: COLO 205; test: NCI-60 SRB screen, colon cancer; assay type: cell-based, human; conditions: Homo sapiens
[18] = tested on: OVCAR-5; test: NCI-60 SRB screen, ovarian cancer; assay type: cell-based, human; conditions: Homo sapiens
[19] = tested on: CCRF-CEM; test: NCI-60 SRB screen, leukemia; assay type: cell-based; conditions: Homo sapiens, 48 h
[20] = tested on: 786-0; test: NCI-60 SRB screen, renal cancer; assay type: cell-based, human; conditions: Homo sapiens
[21] = tested on: SW-620; test: NCI-60 SRB screen, colon cancer; assay type: cell-based, human; conditions: Homo sapiens
[22] = tested on: ACHN; test: NCI-60 SRB screen, renal cancer; assay type: cell-based, human; conditions: Homo sapiens, 48 h
[23] = tested on: HCT-15; test: NCI-60 SRB screen, colon cancer; assay type: cell-based, human; conditions: Homo sapiens
[24] = tested on: HL-60(TB); test: NCI-60 SRB screen, leukemia; assay type: cell-based, human; conditions: Homo sapiens
[25] = tested on: SN12C; test: NCI-60 SRB screen, renal cancer; assay type: cell-based, human; conditions: Homo sapiens, 48 h
[26] = tested on: purified bovine brain tubulin; test: Tubulin polymerization assay (light scattering, BK006 kit); assay type: biochemical; conditions: compound at 10 μM; for Fold Reduction in Vmax: relative to vehicle
Summary of the method: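 Compounds tested at 10 µM against vehicle (1% DMSO or EtOH) with bovine brain tubulin, 3 mg/mL, in pH 6.9 PIPES buffer containing 1 mM GTP and 10% glycerol, 37 °C. Light scattering at 340 nm tracked microtubule formation; average of two independent runs reported.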

[27] = tested on: HT29; test: NCI-60 SRB screen, colon cancer; assay type: cell-based, human; conditions: Homo sapiens
[28] = tested on: A549/ATCC; test: NCI-60 SRB screen, non-small cell lung cancer; assay type: cell-based, human; conditions: Homo sapiens
[29] = tested on: SNB-19; test: NCI-60 SRB screen, CNS cancer; assay type: cell-based, human; conditions: Homo sapiens
[30] = five dose 0.01–100 µM, read-out: GI50
[31] = IGROV-1, IGROV1, five dose 0.01–100 µM, 48 h, read-out: GI50
[32] = HOP-92, five dose 0.01–100 µM, 48 h, read-out: GI50
[33] = NCI-H226, five dose 0.01–100 µM, 48 h, read-out: GI50
[34] = HCT-2998, five dose 0.01–100 µM, read-out: GI50
[35] = KM12, five dose 0.01–100 µM, 48 h, read-out: GI50
[36] = UACC-62, five dose 0.01–100 µM, 48 h, read-out: GI50
[37] = U-251, U251, five dose 0.01–100 µM, 48 h, read-out: GI50
[38] = A498, five dose 0.01–100 µM, 48 h, read-out: GI50
[39] = Homo sapiens, 60 cell, read-out: Mean GI50, mean over all NCI 60 cell lines
[40] = read-out: Mean GI50, mean over all NCI 60 cell lines
[41] = BT-549, five dose 0.01–100 µM, 48 h, read-out: GI50
[42] = HCT-116, five dose 0.01–100 µM, 48 h, read-out: GI50
[43] = CAKI-1, five dose 0.01–100 µM, 48 h, read-out: GI50
[44] = MDA-MB-435, five dose 0.01–100 µM, 48 h, read-out: GI50
[45] = COLO 205, five dose 0.01–100 µM, 48 h, read-out: GI50
[46] = OVCAR-5, five dose 0.01–100 µM, 48 h, read-out: GI50
[47] = 786-0, five dose 0.01–100 µM, 48 h, read-out: GI50
[48] = SW-620, five dose 0.01–100 µM, 48 h, read-out: GI50
[49] = HCT-15, five dose 0.01–100 µM, 48 h, read-out: GI50
[50] = HL-60(TB), five dose 0.01–100 µM, 48 h
[51] = HT-29, HT29, five dose 0.01–100 µM, 48 h, read-out: GI50
[52] = A549/ATCC, five dose 0.01–100 µM, 48 h, read-out: GI50
[53] = SNB-19, five dose 0.01–100 µM, 48 h, read-out: GI50

C=C(C)C1C(=O)N(c2cc(OC)c(OC)c(OC)c2)C1c1ccc(OC)c(N)c1 (stereo not shown) [9s, 4-(3-Amino-4-methoxyphenyl)-1-(3,4,5-trimethoxyphenyl)-3-(prop-1-en-2-yl)azetidin-2-one]
GI50 [1, 30]: 30.4 nM
GI50 [2, 31]: 35.7 nM
GI50 [3, 32]: 43.7 nM
GI50 [4, 33]: 43.5 nM
GI50 [5, 34]: 29.1 nM
GI50 [6, 35]: 23.1 nM
GI50 [7, 36]: 40.6 nM
GI50 [8, 37]: 37.5 nM
GI50 [9, 38]: 23.4 nM
GI50 [10, 39]: < 91.2 nM
CC50 ([10]; Homo sapiens, 60 cell): 75900 nM
IC (TGI (total growth inhibition)) ([10]; Homo sapiens, 60 cell): 22400 nM
GI50 [10, 40]: 55 nM
GI50 [11, 30]: 32.5 nM
GI50 [12, 41]: 37.8 nM
GI50 [13, 42]: 30.2 nM
GI50 [14, 43]: 49.1 nM
GI50 [15, 30]: 587 nM
GI50 [16, 44]: 26 nM
GI50 [17, 45]: 19.7 nM
GI50 [18, 46]: 81.3 nM
GI50 [19, 30]: 37.7 nM
GI50 [20, 47]: 37.6 nM
GI50 [21, 48]: 39.4 nM
GI50 [22, 30]: 62 nM
GI50 [23, 49]: 41.6 nM
GI50 [24, 50]: 28.3 nM
GI50 ([24]; HL-60, NCI screen): < 34 nM
GI50 [25, 30]: 62.9 nM
Fold Reduction in Vmax [26]: 2.66
GI50 [27, 51]: 33.7 nM
IC50 ([27]; HT-29, text of the NCI screening section, read-out: IC50): 34 nM
GI50 [28, 52]: 41.5 nM

C=CCC1C(=O)N(c2cc(OC)c(OC)c(OC)c2)C1c1ccc(OC)c(O)c1 (stereo not shown) [10p, 4-(3-Hydroxy-4-methoxyphenyl)-1-(3,4,5-trimethoxyphenyl)-3-allylazetidin-2-one]
GI50 [1, 30]: 31.4 nM
GI50 [2, 31]: 44.8 nM
GI50 [3, 32]: 23.8 nM
GI50 [4, 33]: 56 nM
GI50 [5, 34]: 29.9 nM
GI50 [6, 35]: 22.4 nM
GI50 [7, 36]: 32 nM
GI50 [8, 37]: 31.7 nM
GI50 [9, 38]: 17.5 nM
GI50 [10, 39]: < 91.2 nM
CC50 ([10]; Homo sapiens, 60 cell): 93300 nM
IC (TGI (total growth inhibition)) ([10]; Homo sapiens, 60 cell): 35500 nM
GI50 [10, 40]: 61.7 nM
GI50 [11, 30]: 33.9 nM
GI50 [12, 41]: 18.8 nM
GI50 [13, 42]: 24.9 nM
GI50 [14, 43]: 44 nM
GI50 [29, 53]: 58.9 nM
GI50 [15, 30]: 76.4 nM
GI50 [16, 44]: 20.5 nM
GI50 [17, 45]: 563 nM
GI50 [18, 46]: 61.8 nM
GI50 [19, 30]: 36.1 nM
GI50 [20, 47]: 25.5 nM
GI50 [21, 48]: 42.2 nM
GI50 [22, 30]: 53.2 nM
GI50 [23, 49]: 36.7 nM
GI50 [24, 50]: 32.3 nM
GI50 ([24]; HL-60, NCI screen): < 34 nM
GI50 [25, 30]: 29.8 nM
Fold Reduction in Vmax [26]: 4.5
GI50 [27, 51]: 360 nM
GI50 [28, 52]: 37.3 nM

C=CC=CC1C(=O)N(c2cc(OC)c(OC)c(OC)c2)C1c1ccc(OC)cc1 (stereo not shown) [11h, 3-(Buta-1,3-dienyl)-4-(4-methoxyphenyl)-1-(3,4,5-trimethoxyphenyl)azetidin-2-one]
GI50 [1]: 35.6 nM
GI50 ([2]; IGROV-1, 48 h): 50.7 nM
GI50 ([3]; HOP-92, 48 h): 24.4 nM
GI50 ([4]; NCI-H226, 48 h): 76.8 nM
GI50 [5]: 30 nM
GI50 ([6]; KM12, 48 h): 30.4 nM
GI50 ([7]; UACC-62, 48 h): 26.7 nM
GI50 ([8]; U-251, 48 h): 32.2 nM
GI50 ([9]; A498, 48 h): 18.3 nM
GI50 [10, 39]: < 91.2 nM
CC50 ([10]; Homo sapiens, 60 cell): 77600 nM
IC (TGI (total growth inhibition)) ([10]; Homo sapiens, 60 cell): 8910 nM
GI50 [10, 40]: 58.9 nM
GI50 [11]: 32.7 nM
GI50 ([12]; BT-549, 48 h): 20.3 nM
GI50 ([13]; HCT-116, 48 h): 26.4 nM
GI50 ([14]; CAKI-1, 48 h): 58.9 nM
GI50 ([29]; SNB-19, 48 h): 65.4 nM
GI50 [15]: 83.4 nM
GI50 ([16]; MDA-MB-435, 48 h): 19.1 nM
GI50 ([17]; COLO 205, 48 h): 26.5 nM
GI50 ([18]; OVCAR-5, 48 h): 94.8 nM
GI50 [19]: 37.8 nM
GI50 ([20]; 786-0, 48 h): 23.1 nM
GI50 ([21]; SW-620, 48 h): 43.8 nM
GI50 [22]: 60.7 nM
GI50 ([23]; HCT-15, 48 h): 40.5 nM
GI50 [24, 50]: 33.8 nM
GI50 ([24]; HL-60, NCI screen): < 34 nM
GI50 [25]: 50.8 nM
Vmax ([26]; 37 °C, 340 nm): 0.0035 mOD/min
Fold Reduction in Vmax [26]: 2.9
IC50 ([27]; HT-29): 33 nM
GI50 ([27]; HT-29, 48 h): 33.2 nM
GI50 ([28]; A549, 48 h): 36.4 nM

COc1ccc(C2C(C(C)C)C(=O)N2c2cc(OC)c(OC)c(OC)c2)cc1OP(=O)(O)O (stereo not shown) [15b, 5-(3-Isopropyl-1-(3,4,5-trimethoxyphenyl)-4-oxoazetidin-2-yl)-2-methoxyphenyl dihydrogen phosphate]
GI50 [1, 30]: 324 nM
GI50 [2, 31]: 434 nM
GI50 [3, 32]: 11200 nM
GI50 [4, 33]: > 100000 nM
GI50 [5, 34]: 452 nM
GI50 [6, 35]: 180 nM
GI50 [7, 36]: 131 nM
GI50 [8, 37]: 276 nM
GI50 [9, 38]: 104 nM
GI50 [10, 39]: 525 nM
CC50 ([10]; Homo sapiens, 60 cell): 93300 nM
IC (TGI (total growth inhibition)) ([10]; Homo sapiens, 60 cell): 44700 nM
GI50 [11, 30]: 328 nM
GI50 [12, 41]: 411 nM
GI50 [13, 42]: 319 nM
GI50 [14, 43]: 320 nM
GI50 [29, 53]: 477 nM
GI50 [16, 44]: 73.8 nM
GI50 [17, 45]: 1230 nM
GI50 [18, 46]: 2340 nM
GI50 [19, 30]: 356 nM
GI50 [20, 47]: 439 nM
GI50 [21, 48]: 373 nM
GI50 [22, 30]: 359 nM
GI50 [23, 49]: 298 nM
GI50 [24, 50]: 305 nM
GI50 [25, 30]: 463 nM
GI50 [27, 51]: 3470 nM
GI50 [28, 52]: 353 nM
